Ten compounds from patent US20210338672A1, “USE OF AN INHIBITOR OF AN ENT FAMILY TRANSPORTER IN THE TREATMENT OF CANCER AND COMBINATION THEREOF WITH AN ADENOSINE RECEPTOR ANTAGONIST” (iTeos Belgium SA, priority 2018, published 2021) can be followed below.

Where a name gives a salt, the structure may show the parent alone.

Assay [1] deals with Human primary CD3+ T cells. In words: TNFα secretion by CD3+ T cells (AlphaLISA). The following applies: 100 μM ATP; for Reversal of inhibition of T cells in the presence of ATP, A2A receptor antagonist in combination with dipyridamole: FIG. 5A-C (viability, CD8+ proliferation, TNFα), with dipyridamole 1 μM, Compound 8a 300 nM, NIR178 5 μM, CPI-444 5 μM, AZD4635 1 μM, AB928 1 μM. Background: Alpha assays give light when donor and acceptor beads are brought close together.
Method: Human primary CD3+ T cells were stimulated with antiCD3/antiCD28-coated microbeads, and treated with 100 μM ATP or control medium. Viability of CD3+ T cells (FIG. 5A) and proliferation of CD8+ T cells (FIG. 5B) were analysed by flow cytometry after a 3 days incubation period. TNFα secretion in the supernatant was analysed by AlphaLISA. Grey shaded bars show A2AR antagonist treated wells, whilst clear bars denote concentration-matched DMSO treated wells. […] Data shown are representative of data obtained in three healthy individuals in 4 independent experiments.
Venous blood from healthy volunteers, all of whom signed an informed consent approved by the Ethics Committee (FOR-UIC-BV-050-01-01 ICF_HBS_HD Version 5.0), was obtained via Unité d'Investigation Clinique (Centre Hospitalier Universitaire de Tivoli, La Louviere, Belgium). Mononuclear cells were collected by density gradient centrifugation, using SepMate-50 tubes and Lymphoprep according to the manufacturer's instructions. CD3+ T cells were isolated by immunomagnetic negative selection, using the EasySep Human T Cell Isolation Kit as per manufacturer's instructions. CD3+ T cells were stored in heat inactivated FBS and 10% DMSO in liquid nitrogen.
Human purified CD3+ T cells were thawed and washed twice with RPMI1640 medium, UltraGlutamine, supplemented with 1× non-essential amino acids (Lonza), and 1 mM Sodium Pyruvate (Gibco) (complete media), containing 10% hiFBS. After the final wash, cells were resuspended in PBS containing 10% FBS, and labeled using 3 μM CFSE during 5 min at room temperature, followed by two wash steps in complete media. After the last wash, cells were suspended at 1.6×10^6 cells/mL in X-Vivol5 medium. 50 μL of cell suspension (8×10^4 T cells) was added to wells of sterile round-bottom 96-well plates. Cells were activated by adding 50 μL of anti-CD3 anti-CD28 coated microbeads (Dynabeads human T-activator CD3/CD28), suspended in X-Vivo15 medium, at a ratio of one microbead per two cells. […] The final concentration of DMSO in the assay was 0.05%, and the final assay volume was 200 μL. Experiments were performed in biological duplicate, and DMSO control was added in quadruplicate. The cells were placed in a 37° C. humidified tissue culture incubator with 5% CO2 for 72 hours. After 72 hours, the cells were pelleted by centrifugation at 1600 rpm for 5 minutes, and supernatants were transferred to V-bottom 96-well plates for cytokine quantification. Cell pellets were resuspended in FACS buffer (see below) for flow cytometry analysis.
Supernatants were centrifuged at 4000 rpm for 10 minutes, and IL-2 was quantified using the IL-2 (human) AlphaLISA Biotin-Free Detection Kit, and TNFα was quantified using the AlphaLISA Human TNFα Biotin-Free Detection Kit, according to the manufacturer's instructions.

The test system of assay [2] is Human primary CD3+ T cells. The following applies: 25 μM adenosine or 200 μM ATP, 3 days; for T cell cytokine secretion (IL-2), effect of adenosine or ATP: anti-CD3/CD28-stimulated CD3+ T cells; for Restoration of adenosine- and ATP-mediated suppression of IL-2 secretion: single agent, Compound 8a at 300 nM.
Method: CD3+ T cells were stimulated with antiCD3/antiCD28-coated microbeads, and treated with 25 μM adenosine (FIG. 4A) or 200 μM ATP (FIG. 4B). IL-2 secretion in the supernatant was analysed by AlphaLISA after a 3 days incubation period. […] Representative data for 1 healthy donor are shown.
(§1) PBMC and CD3+ T cell isolation. Venous blood from healthy volunteers, all of whom signed an informed consent approved by the Ethics Committee (FOR-UIC-BV-050-01-01 ICF_HBS_HD Version 5.0), was obtained via Unité d'Investigation Clinique (Centre Hospitalier Universitaire de Tivoli, La Louviere, Belgium). Mononuclear cells were collected by density gradient centrifugation, using SepMate-50 tubes and Lymphoprep according to the manufacturer's instructions. CD3+ T cells were isolated by immunomagnetic negative selection, using the EasySep Human T Cell Isolation Kit as per manufacturer's instructions. CD3+ T cells were stored in heat inactivated FBS and 10% DMSO in liquid nitrogen.
(§2) Human primary T cell culture. Human purified CD3+ T cells were thawed and washed twice with RPMI1640 medium, UltraGlutamine, supplemented with 1× non-essential amino acids (Lonza), and 1 mM Sodium Pyruvate (Gibco) (complete media), containing 10% hiFBS. After the final wash, cells were resuspended in PBS containing 10% FBS, and labeled using 3 μM CFSE during 5 min at room temperature, followed by two wash steps in complete media. After the last wash, cells were suspended at 1.6×10^6 cells/mL in X-Vivol5 medium. 50 μL of cell suspension (8×10^4 T cells) was added to wells of sterile round-bottom 96-well plates. Cells were activated by adding 50 μL of anti-CD3 anti-CD28 coated microbeads (Dynabeads human T-activator CD3/CD28), suspended in X-Vivo15 medium, at a ratio of one microbead per two cells. […] The final concentration of DMSO in the assay was 0.05%, and the final assay volume was 200 μL. Experiments were performed in biological duplicate, and DMSO control was added in quadruplicate. The cells were placed in a 37° C. humidified tissue culture incubator with 5% CO2 for 72 hours. After 72 hours, the cells were pelleted by centrifugation at 1600 rpm for 5 minutes, and supernatants were transferred to V-bottom 96-well plates for cytokine quantification. Cell pellets were resuspended in FACS buffer (see below) for flow cytometry analysis.
Cytokine quantification. Supernatants were centrifuged at 4000 rpm for 10 minutes, and IL-2 was quantified using the IL-2 (human) AlphaLISA Biotin-Free Detection Kit, and TNFα was quantified using the AlphaLISA Human TNFα Biotin-Free Detection Kit, according to the manufacturer's instructions.
For assay [3], the system named is Human primary CD3+ T cells. In words: Proliferation of CD4+ and CD8+ T cells (CFSE dilution, flow cytometry). Conditions: 3 days; for T cell proliferation, effect of adenosine or ATP: anti-CD3/CD28-stimulated CD3+ T cells; for T cell proliferation, effect of adenosine or ATP / Restoration of adenosine- and ATP-mediated suppression of T cell proliferation: 25 μM adenosine or 200 μM ATP; for Restoration of adenosine- and ATP-mediated suppression of T cell proliferation: single agent, Compound 8a at 300 nM.
Method: Human primary CD3+ T cells were stimulated with antiCD3/antiCD28-coated microbeads, and treated with 25 μM adenosine (FIGS. 3A and 3C) or 200 μM ATP (FIGS. 3B and 3D). Proliferation of CD4+(FIGS. 3A and 3B) and CD8+(FIGS. 3C and 3D) T cells was analysed by flow cytometry after a 3 days incubation period.
(§3) Human primary CD3+ T cells were stimulated with antiCD3/antiCD28-coated microbeads, and treated with 100 μM ATP or control medium. Viability of CD3+ T cells (FIG. 5A) and proliferation of CD8+ T cells (FIG. 5B) were analysed by flow cytometry after a 3 days incubation period.
as §1
Human primary T cell culture. Human purified CD3+ T cells were thawed and washed twice with RPMI1640 medium, UltraGlutamine, supplemented with 1× non-essential amino acids (Lonza), and 1 mM Sodium Pyruvate (Gibco) (complete media), containing 10% hiFBS. After the final wash, cells were resuspended in PBS containing 10% FBS, and labeled using 3 μM CFSE during 5 min at room temperature, followed by two wash steps in complete media. After the last wash, cells were suspended at 1.6×10^6 cells/mL in X-Vivol5 medium. 50 μL of cell suspension (8×10^4 T cells) was added to wells of sterile round-bottom 96-well plates. Cells were activated by adding 50 μL of anti-CD3 anti-CD28 coated microbeads (Dynabeads human T-activator CD3/CD28), suspended in X-Vivo15 medium, at a ratio of one microbead per two cells. […] The final concentration of DMSO in the assay was 0.05%, and the final assay volume was 200 μL. Experiments were performed in biological duplicate, and DMSO control was added in quadruplicate. The cells were placed in a 37° C. humidified tissue culture incubator with 5% CO2 for 72 hours. […] Cell pellets were resuspended in FACS buffer (see below) for flow cytometry analysis.
(§4) Flow cytometry. Cells were washed with FACS buffer (PBS containing 2 mM EDTA and 0.1% BSA) and stained with surface marker antibodies and viability dye for 20 min on ice. Cells were washed twice with FACS buffer and data acquired using an LSRFortessa (BD biosciences). Analysis was performed using FlowJo software (Treestar).

For assay [4], the system named is Human primary CD3+ T cells. In words: Viability of stimulated human primary CD3+ T cells (flow cytometry, fixable viability dye). The following applies: 3 days; for T cell viability, effect of adenosine or ATP: anti-CD3/CD28-stimulated CD3+ T cells; for T cell viability, effect of adenosine or ATP / Restoration of adenosine- and ATP-mediated suppression of T cell viability: 25 μM adenosine or 200 μM ATP; for Restoration of adenosine- and ATP-mediated suppression of T cell viability: single agent, Compound 8a at 300 nM.
Method: Human primary CD3+ T cells were stimulated with antiCD3/antiCD28-coated microbeads, and treated with 25 μM adenosine (FIG. 2A) or 200 μM ATP (FIG. 2B). T cell viability was analysed by flow cytometry after a 3 days incubation period.
as §3
PBMC and CD3+ T cell isolation. […] Mononuclear cells were collected by density gradient centrifugation, using SepMate-50 tubes and Lymphoprep according to the manufacturer's instructions. CD3+ T cells were isolated by immunomagnetic negative selection, using the EasySep Human T Cell Isolation Kit as per manufacturer's instructions. CD3+ T cells were stored in heat inactivated FBS and 10% DMSO in liquid nitrogen.
as §2, §4

The test system of assay [5] is LPS induced TNFalpha production. In words: In vivo LPS induced TNFalpha production in mouse (serum ELISA). Conditions: BALB/c mice; 20 mg/kg p.o. 1 h before LPS; p=0.008. The procedure: BALB/c mice were pretreated for 1 h before LPS (1 mg/kg I.V) injection with NBMPR (20 mg/kg p.o.) or vehicle. […] One hour after LPS treatment, blood serum was collected from the mice. TNFalpha levels were determined by ELISA (n=5).
After 30 minutes, mice were treated with NBMPR p.o. at 20 mg/kg. 60 minutes later, mice were treated with LPS and blood was drawn for TNFalpha measurement in the serum, by ELISA.

The subject of a further assay is MCA205 tumor. In words: Mouse syngeneic MCA205 fibrosarcoma tumor model. Type of assay: in vivo. Conditions: C57BL/6 mice; 20 mg/kg p.o. BID for 22 days; p=0.0043. The text has this: FIG. 7A is a graph representing the median tumor volume over time after subcutaneous inoculation of tumor cells.
MCA205 tumor cells were inoculated subcutaneously into the right flank of C57BL/6 mice. When tumors reached an average size of about […], mice were randomly allocated into groups.

As to `Cc1c(C#N)cccc1-c1cc(-c2cn(Cc3cccc(C(C)(C)O)n3)nn2)nc(N)n1` [AB928, 3-(2-amino-6-(1-((6-(2-hydroxypropan-2-yl)pyridin-2-yl)methyl)-1H-1,2,3-triazol-4-yl)pyrimidin-4-yl)-2-methylbenzonitrile], in assay [1], the “Reversal of inhibition of T cells in the presence of ATP, A2A receptor antagonist in combination with dipyridamole” value (from here on “Reversal of inhibition of T cells”) is reported as “reversed”.

`Nc1ncnc2c1ncn2[C@@H]1O[C@H](COP(=O)([O-])OP(=O)([O-])OP(=O)(O)O)[C@@H](O)[C@H]1O.O.[Na+].[Na+]` [ATP, Adenosine 5′-triphosphate disodium salt hydrate]: the “T cell cytokine secretion (IL-2), effect of adenosine or ATP” value in assay [2] is “profoundly suppressed”. In assay [1] (3 days), the “Production of TNFα, effect of ATP” value is “significantly inhibited”. Also, the “CD8+ T cell proliferation, effect of ATP” value in assay [3] (100 μM ATP) is “significantly inhibited”. Besides, in assay [3], the “T cell proliferation, effect of adenosine or ATP” value is listed as “profoundly suppressed”. In assay [4] (100 μM ATP), the “T cell viability, effect of ATP” value is given as “reduced”. Also, the “T cell viability, effect of adenosine or ATP” value in assay [4] is “strongly reduced”.

As to `Cc1cc(-c2nnc(N)nc2-c2ccc(F)cc2)cc(Cl)n1` [AZD4635, 6-(2-chloro-6-methylpyridin-4-yl)-5-(4-fluorophenyl)-1,2,4-triazin-3-amine], the “Reversal of inhibition of T cells” value in assay [1] was “reversed”.

For `Nc1ncnc2c1ncn2[C@@H]1O[C@H](CO)[C@@H](O)[C@H]1O` [Adenosine], the “T cell cytokine secretion (IL-2), effect of adenosine or ATP” value in assay [2] was “profoundly suppressed”. In addition, the “T cell proliferation, effect of adenosine or ATP” value in assay [3] was “profoundly suppressed”. Further, the “T cell viability, effect of adenosine or ATP” value in assay [4] is listed as “strongly reduced”.

Consider `Cc1ccc(-c2nc(N)nc3c2nnn3Cc2cccc(CO[C@H]3CCOC3)n2)o1` [CPI-444, (S)-7-(5-methylfuran-2-yl)-3-((6-(([tetrahydrofuran-3-yl]oxy)methyl)pyridin-2-yl)methyl)-3H-[1,2,3]triazolo[4,5-d]pyrimidin-5-amine], for which, in assay [1], the “Reversal of inhibition of T cells” value is reported as “reversed”.

Consider `O=[N+]([O-])c1ccc(CSc2ncnc3c2ncn3[C@@H]2O[C@H](CO)[C@@H](O)[C@H]2O)cc1` [NBMPR, 6-S-[(4-Nitrophenyl)methyl]-6-thioinosine], for which, in assay [5], the “Suppression of TNFalpha production after LPS, NBMPR on its own” value was around 2 fold. Also, the “Tumor growth compared to Vehicle, NBMPR single agent” value with MCA205 tumor is reported as “significant delay in tumor growth”.

For `Nc1nc(-n2cccn2)nc(-n2cccn2)c1Br` [NIR178, 5-bromo-2,6-di-(1H-pyrazol-1-yl)pyrimidin-4-amine], the “Reversal of inhibition of T cells” value in assay [1] is reported as “reversed”.

As for `COc1cc(C(=O)OCCCN2CCCN(CCCOC(=O)c3cc(OC)c(OC)c(OC)c3)CC2)cc(OC)c1OC` [dilazep hydrochloride], the “Restoration of adenosine- and ATP-mediated suppression of IL-2 secretion” value (from here on “Restoration … of IL-2 secretion”) in assay [2] is recorded as “none of the ENT inhibitors rescued”. Further, in assay [3], the “Restoration of adenosine- and ATP-mediated suppression of T cell proliferation” value (from here on “Restoration … of T cell proliferation”) was “restored”. Besides, the “Restoration of adenosine- and ATP-mediated suppression of T cell viability” value (“Restoration … of T cell viability” below) in assay [4] is reported as “restored”.

As to `OCCN(CCO)c1nc(N2CCCCC2)c2nc(N(CCO)CCO)nc(N3CCCCC3)c2n1` [dipyridamole], the “Restoration … of IL-2 secretion” value in assay [2] is given as “none of the ENT inhibitors rescued”. Further, the “Reversal of ATP inhibition of CD8+ T cell proliferation” value in assay [3] (100 μM ATP, dipyridamole 1 μM) is given as “completely reversed”. Also, the “Restoration … of T cell proliferation” value in assay [3] is “restored”. Also, the “Reversal of ATP-reduced T cell viability” value in assay [4] (100 μM ATP, dipyridamole 1 μM) was “completely reversed”. Further, the “Restoration … of T cell viability” value in assay [4] is given as “restored”.

In the case of `CCCSc1nc(N[C@@H]2C[C@H]2c2ccc(F)c(F)c2)c2nnn([C@@H]3C[C@H](OCCO)[C@@H](O)[C@H]3O)c2n1` [ticagrelor], in assay [2], the “Restoration … of IL-2 secretion” value is reported as “none of the ENT inhibitors rescued”. Also, the “Restoration … of T cell proliferation” value in assay [3] was “restored”. For the same compound, in assay [4], the “Restoration … of T cell viability” value is listed as “restored”.
